Experimental data published in US8846570B2, “Herbicidal compositions comprising 4-amino-3-chloro-5-fluoro-6-(4-chloro-2-fluoro-3-methoxyphenyl)pyridine-2-carboxylic acid or a derivative thereof and microtubule inhibiting herbicides” (Dow AgroSciences LLC, priority 2012, dated 2014).

Experiments:
Assay type in all cases: in vivo
[1] = test system: Echinochloa crusgalli (L.) Beauv. (ECHCG); experiment: Postemergence foliar-applied, direct seeded rice, greenhouse: visual weed control; settings: 21 DAA
Protocol: (§1) Seeds or nutlets of the desired test plant species were planted in a soil matrix prepared by mixing a loam or sandy loam soil (e.g., 28.6 percent silt, 18.8 percent clay, and 52.6 percent sand, with a pH of about 5.8 and an organic matter content of about 1.8 percent) and calcareous grit in an 80 to 20 ratio. The soil matrix was contained in plastic pots with a volume of 1 quart and a surface area of 83.6 cm^2. […] The plants were grown for 8-22 days in a greenhouse with an approximate 14 h photoperiod which was maintained at about 29° C. during the day and 26° C. during the night. Nutrients (Peters Excel® 15-5-15 5-Ca 2-Mg and iron chelate) were applied in the irrigation solution as needed and water was added on a regular basis. Supplemental lighting was provided with overhead metal halide 1000-Watt lamps as necessary. The plants were employed for testing when they reached the first through fourth true leaf stage.
(§2) Forms of compound A were applied on an acid equivalent basis.
(§3) For treatments comprised of formulated compounds, measured amounts of compounds were placed individually in 25 mL glass vials and diluted in a volume of 1.25% (v/v) Agri-Dex® crop oil concentrated to obtain 12× stock solutions. […] Application solutions were prepared by adding an appropriate amount of each stock solution (e.g., 1 mL) and diluted to the appropriate final concentrations with the addition of 10 mL of an aqueous mixture of 1.25% (v/v) crop oil concentrate so that the final spray solutions contained 1.25+/−0.05% (v/v) crop oil concentrate.
(§4) As required, additional water and/or 97:3 v/v acetone/DMSO was added to individual application solutions so that the final acetone and DMSO concentrations of the application solutions being compared were 8.1% and 0.25%, respectively.
(§5) All stock solutions and applications solutions were visually inspected for compound compatibility prior to application. Spray solutions were applied to the plant material with an overhead Mandel track sprayer equipped with a 8002E nozzles calibrated to deliver 187 L/ha over an application area of 0.503 m^2 at a spray height of 18 to 20 inches (46 to 50 cm) above average plant canopy height. Control plants were sprayed in the same manner with the solvent blank.
(§6) The treated plants and control plants were placed in a greenhouse as described above and watered by sub-irrigation to prevent wash-off of the test compounds. After approximately 3 weeks, the condition of the test plants as compared with that of the untreated plants was determined visually and scored on a scale of 0 to 100 percent where 0 corresponds to no injury or growth inhibition and 100 corresponds to complete kill.
(§7) Colby's equation was used to determine the herbicidal effects expected from the mixtures (Colby, S. R. 1967. Calculation of the synergistic and antagonistic response of herbicide combinations. Weeds 15:20-22.).
(§8) The following equation was used to calculate the expected activity of mixtures containing two active ingredients, A and B: Expected=A+B−(A×B/100)

[2] = test system: Ipomoea hederacea Jacq. (IPOHE); experiment: as above; settings: post-emergence, 504 h, read-out: Visual Weed Control (%) Obs
Protocol: as §1, §2, §3, §4, §5, §6, §7, §8

[3] = test system: Leptochloa chinensis (L.) Nees (LEFCH); experiment: In-water applied, transplanted paddy rice, greenhouse: visual weed control; settings: 21 DAA
Protocol: Weed seeds or nutlets of the desired test plant species were planted in puddled soil (mud) prepared by mixing a shredded, non-sterilized mineral soil (50.5 percent silt, 25.5 percent clay, and 24 percent sand, with a pH of about 7.6 and an organic matter content of about 2.9 percent) and water at a 1:1 volumetric ratio. The prepared mud was dispensed in 365 mL aliquots into 16-ounce (oz.) non-perforated plastic pots with a surface area of 86.59 square centimeters (cm^2) leaving a headspace of 3 centimeters (cm) in each pot. Mud was allowed to dry overnight prior to planting or transplanting. Rice seeds were planted in Sun Gro MetroMix® 306 planting mixture, which typically has a pH of 6.0 to 6.8 and an organic matter content of about 30 percent, in plastic plug trays. Seedlings at the second or third leaf stage of growth were transplanted into 860 mL of mud contained in 32-oz. non-perforated plastic pots with a surface area of 86.59 cm^2 4 days prior to herbicide application. The paddy was created by filling the headspace of the pots with 2.5 to 3 cm of water. When required to ensure good germination and healthy plants, a fungicide treatment and/or other chemical or physical treatment was applied. The plants were grown for 4-22 days in a greenhouse with an approximate 14 h photoperiod which was maintained at about 29° C. during the day and 26° C. during the night. Nutrients were added as Osmocote® (19:6:12, N:P:K+minor nutrients) at 2 g per 16.-oz. pot and 4 g per 32-oz. pot. Water was added on a regular basis to maintain the paddy flood, and supplemental lighting was provided with overhead metal halide 1000-Watt lamps as necessary. The plants were employed for testing when they reached the first through fourth true leaf stage.
Treatments consisted of the acid or esters of 4-amino-3-chloro-5-fluoro-6-(4-chloro-2-fluoro-3-methoxy-phenyl)pyridine-2-carboxylic acid (compound A) each formulated as an SC and various herbicidal components alone and in combination. Forms of compound A were applied on an acid equivalent basis.
Treatment requirements for each compound or herbicidal component were calculated based upon the rates being tested, the concentration of active ingredient or acid equivalent in the formulation, an application volume of 2 mL per component per pot, and an application area of 86.59 cm^2 per pot.
For formulated compounds, a measured amount was placed in an individual 100 or 200 mL glass vial and was dissolved in a volume of 1.25% (v/v) Agri-Dex® crop oil concentrate to obtain application solutions.
For technical grade compounds, a weighed amount was placed in an individual 100 to 200 mL glass vial and was dissolved in a volume of acetone to obtain concentrated stock solutions. […] The concentrated stock solutions obtained were diluted with an equivalent volume of an aqueous mixture containing 2.5% (v/v) crop oil concentrate so that the final application solutions contained 1.25% (v/v) crop oil concentrate.
Applications were made by injecting, with a pipetter, appropriate amounts of the application solutions into the aqueous layer of the paddy. Control plants were treated in the same manner with the solvent blank. Applications were made so that all treated plant material received the same concentrations of acetone and crop oil concentrate.
as §6, with “water was added as needed” for “watered by sub-irrigation”, “maintain a paddy flood.” for “prevent wash-off of the test compounds.”, “weeks” for “weeks,”
Colby's equation was used to determine the herbicidal effects expected from the mixtures (Colby, S. R. 1967. Calculation of the synergistic and antagonistic response of herbicide combinations. Weeds 15:20-22.). […]

CCCCOC(=O)c1nc(-c2ccc(Cl)c(OC)c2F)c(F)c(N)c1Cl [Compound A n-Butyl Ester]
Visual Weed Control (%) Obs ([1]; 17.5 g ae/ha): 45% | Visual Weed Control (%) Obs ([1]; 35 g ae/ha): 70% | pest or weed control at 17.5 g/ha [2]: 40% | Visual Weed Control (%) Obs ([3]; 35 g ae/ha): 8% | Visual Weed Control (%) Obs ([3]; 70 g ae/ha): 38%
